pIC50: −log10 of the molar value.
Each compound was assayed against T1, Chymase (Homo sapiens, UniProt P23946) (assay: In vitro assay for inhibition of Chymase (rhodamine 110 peptide substrate, fluorescence)). Conditions: 500 pM chymase, 100 nM substrate, 100 μM TCEP, 1% DMSO, 28° C., 1 hour.
T1 sequence (P23946 22-247): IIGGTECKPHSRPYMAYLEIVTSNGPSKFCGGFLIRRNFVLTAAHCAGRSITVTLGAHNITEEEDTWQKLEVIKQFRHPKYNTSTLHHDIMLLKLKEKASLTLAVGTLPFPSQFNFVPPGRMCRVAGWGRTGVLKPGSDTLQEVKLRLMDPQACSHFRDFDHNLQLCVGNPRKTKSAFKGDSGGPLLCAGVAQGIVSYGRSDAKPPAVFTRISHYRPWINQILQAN
Type: biochemical
Experimental: IN VITRO ASSAY FOR INHIBITION OF CHYMASE
Chymase assays were performed in a total volume of 15 μL in Corning black opaque 384-well microtiter plates with a non-binding surface (Corning, N.Y.). The assay buffer was comprised of 20 mM Tris HCl pH 8.0, 50 mM NaCl, 0.01% CHAPS. The test compounds were serially diluted 3-fold with neat DMSO in a 96-well polypropylene plate from a 10 mM DMSO stock to give the 10 point dose response curve. 3 μL of the resulting DMSO solution were transferred to a 384-well polypropylene plate in duplicate, and 37 μL of assay buffer was added. Chymase was added to the assay plate in 3 uL of assay buffer followed by 2 uL of the appropriate compound dilution using a PlateMate Plus (Matrix Technologies Corp., Hudson, N.H.). The reaction was initiated by the addition of 10 uL rhodamine 110, bis-(succinoyl-L-alanyl-L-alanyl-L-prolyl-L-phenylalanylamide) (American Peptides, Sunnyvale, Calif.) in assay buffer containing 150 μM tris(2-carboxyethyl)phosphine (TCEP, Pierce Chemical, Rockford, Ill.) using a Multidrop (Thermo Electron Corp., Waltham, Mass.). Final assay concentrations were 500 pM chymase, 100 nM substrate, 100 μM TCEP, and 1% DMSO. The plates were incubated at 28° C. and 80% humidity for 1 hour, at which time the fluorescence was read on a Viewlux 1430 Microplate Imager (Perkin Elmer Life Sciences, Boston, Mass.) with 485 nm excitation, 530 nm emission, and a fluorescein dichroic mirror. The percentage of control values were calculated relative to assay blanks containing complete reaction minus chymase and a 100% control containing assay buffer with 1% DMSO in place of compound. IC50 values were obtained by fitting the data using XLFit4 (IDBS Software).

| pIC50 | SMILES |
| --- | --- |
| 9.78 | Cc1cccc2c1c(Cn1c(=O)n([C@H](CC(=O)O)c3ccc(Cl)cc3)c3nc(C#N)ccc31)cn2C [(R)-3-(4-Chloro-phenyl)-3-[5-cyano-1-(1,4-dimethyl-1H-indol-3-ylmethyl)-2-oxo-1,2-dihydro-imidazo[4,5-b]pyridin-3-yl]-propionic acid] |
| 8.52 | CCCC(Cn1c(=O)n(Cc2cn(C)c3cccc(C)c23)c2cccnc21)C(=O)O (stereo not shown) [2-[1-(1,4-Dimethyl-1H-indol-3-ylmethyl)-2-oxo-1,2-dihydro-imidazo[4,5-b]pyridin-3-ylmethyl]-pentanoic acid] |
| 8.30 | Cc1cccc2c1c(Cn1c(=O)n([C@H](CC(=O)O)c3ccccc3)c3nc(C4CC4)ncc31)cn2C [(R)-3-[2-Cyclopropyl-7-(1,4-dimethyl-1H-indol-3-ylmethyl)-8-oxo-7,8-dihydro-purin-9-yl]-3-phenyl-propionic acid] |
| 9.09 | CCC[C@@H](CC(=O)O)n1c(=O)n(Cc2cn(C)c3cc(C)cc(C)c23)c2ccc(C)nc21 [(S)-3-[5-Methyl-2-oxo-1-(1,4,6-trimethyl-1H-indol-3-ylmethyl)-1,2-dihydro-imidazo[4,5-b]pyridin-3-yl]-hexanoic acid] |
| 9.59 | Cc1ccc2c(n1)n([C@H](CC(=O)O)c1ccc(Cl)cc1)c(=O)n2Cc1cn(C)c2cccc(C)c12 [(R)-3-(4-Chloro-phenyl)-3-[1-(1,4-dimethyl-1H-indol-3-ylmethyl)-5-methyl-2-oxo-1,2-dihydro-imidazo[4,5-b]pyridin-3-yl]-propionic acid] |
| 8.40 | Cc1cc(C)c2c(Cn3c(=O)n([C@H](CC(=O)O)c4ccccc4)c4cc(C)ncc43)nsc2c1 [(R)-3-[3-(4,6-Dimethyl-1,2-benzisothiazol-3-ylmethyl)-6-methyl-2-oxo-2,3-dihydro-imidazo[4,5-c]pyridin-1-yl]-3-phenyl-propionic acid] |
| 8.35 | CCC[C@@H](CC(=O)O)n1c(=O)n(Cc2cn(C)c3cccc(C)c23)c2ccc(C)nc21 [(S)-3-[1-(1,4-Dimethyl-1H-indol-3-ylmethyl)-5-methyl-2-oxo-1,2-dihydro-imidazo[4,5-b]pyridin-3-yl]-hexanoic acid] |
| 7.93 | CCC[C@@H](CC(=O)NS(C)(=O)=O)n1c(=O)n(Cc2cn(C)c3cccc(C)c23)c2cccnc21 [N-{(S)-3-[1-(1,4-Dimethyl-1H-indol-3-ylmethyl)-2-oxo-1,2-dihydro-imidazo[4,5-b]pyridin-3-yl]-hexanoyl}-methanesulfonamide] |
| 8.15 | Cc1ccc2c(n1)n([C@H](CC(=O)O)c1cccc(Cl)c1)c(=O)n2Cc1cn(C)c2cccc(C)c12 [(R)-3-(3-Chloro-phenyl)-3-[1-(1,4-dimethyl-1H-indol-3-ylmethyl)-5-methyl-2-oxo-1,2-dihydro-imidazo[4,5-b]pyridin-3-yl]-propionic acid] |
| 8.31 | CCC[C@@H](CC(=O)O)n1c(=O)n(Cc2cn(C)c3cccc(C)c23)c2cccnc21 [(S)-3-[1-(1,4-Dimethyl-1H-indol-3-ylmethyl)-2-oxo-1,2-dihydro-imidazo[4,5-b]pyridin-3-yl]-hexanoic acid] |
| 8.66 | Cc1cccc2c1c(Cn1c(=O)n([C@H](CC(=O)O)c3ccccc3)c3ncccc31)cn2C [(R)-3-[1-(1,4-Dimethyl-1H-indol-3-ylmethyl)-2-oxo-1,2-dihydro-imidazo[4,5-b]pyridin-3-yl]-3-phenyl-propionic acid] |
| 7.95 | Cc1cc(C)c2c(Cn3c(=O)n([C@H](CC(=O)O)c4ccccc4)c4ccncc43)nsc2c1 [(R)-3-[3-(4,6-Dimethyl-benzo[d]isothiazol-3-ylmethyl)-2-oxo-2,3-dihydro-imidazo[4,5-c]pyridin-1-yl]-3-phenyl-propionic acid] |
| 8.69 | COc1ccc2c(n1)n([C@H](CC(=O)O)c1ccccc1)c(=O)n2Cc1cn(C)c2cccc(C)c12 [(R)-3-[1-(1,4-Dimethyl-1H-indol-3-ylmethyl)-5-methoxy-2-oxo-1,2-dihydro-imidazo[4,5-b]pyridin-3-yl]-3-phenyl-propionic acid] |
| 9.70 | Cc1cc(C)c2c(Cn3c(=O)n([C@H](CC(=O)O)c4ccc(Cl)cc4)c4nc(C)ccc43)cn(C)c2c1 [(R)-3-(4-Chloro-phenyl)-3-[5-methyl-2-oxo-1-(1,4,6-trimethyl-1H-indol-3-ylmethyl)-1,2-dihydro-imidazo[4,5-b]pyridin-3-yl]-propionic acid] |
| 8.60 | Cc1ccc2c(n1)n([C@H](CC(=O)O)c1ccccc1)c(=O)n2Cc1cn(C)c2cccc(C)c12 [(R)-3-[1-(1,4-Dimethyl-1H-indol-3-ylmethyl)-5-methyl-2-oxo-1,2-dihydro-imidazo[4,5-b]pyridin-3-yl]-3-phenyl-propionic acid] |
| 8.84 | Cc1cc(C)c2c(Cn3c(=O)n(CC4(C(=O)O)CCCCC4)c4nc(C)ccc43)nsc2c1 [1-[1-(4,6-Dimethyl-1,2-benzisothiazol-3-ylmethyl)-5-methyl-2-oxo-1,2-dihydro-imidazo[4,5-b]pyridin-3-ylmethyl]-cyclohexanecarboxylic acid] |
| 9.34 | COc1ccc([C@@H](CC(=O)O)n2c(=O)n(Cc3cn(C)c4cccc(C)c34)c3ccc(C)nc32)cc1 [(R)-3-[1-(1,4-Dimethyl-1H-indol-3-ylmethyl)-5-methyl-2-oxo-1,2-dihydro-imidazo[4,5-b]pyridin-3-yl]-3-(4-methoxy-phenyl)-propionic acid] |
| 9.22 | Cc1cc(C)c2c(Cn3c(=O)n([C@H](CC(=O)O)c4ccccc4)c4nc(C#N)ccc43)cn(C)c2c1 [(R)-3-[5-Cyano-2-oxo-1-(1,4,6-trimethyl-1H-indol-3-ylmethyl)-1,2-dihydro-imidazo[4,5-b]pyridin-3-yl]-3-phenyl-propionic acid] |
| 7.90 | Cc1cccc2c1c(Cn1c(=O)n([C@H](CC(=O)O)c3ccccc3)c3nc(C(C)C)ncc31)cn2C [(R)-3-[7-(1,4-Dimethyl-1H-indol-3-ylmethyl)-2-isopropyl-8-oxo-7,8-dihydro-purin-9-yl]-3-phenyl-propionic acid] |
